The record followed here is patent US20220220128A1, “HETEROCYCLIC COMPOUNDS AS KINASE INHIBITORS, COMPOSITIONS COMPRISING THE HETEROCYCLIC COMPOUND, AND METHODS OF USE THEREOF” (JS Innopharm (Shanghai) Ltd, priority 2019, published 2022).

The target in experiment [1] is T1, BAF3-KIF5B-RET cells (Homo sapiens, UniProt P07949).
T1 construct: fused on or other part: P33176 (Kinesin-1 heavy chain)
Description: BAF3-KIF5B-RET Cell proliferation assay (CellTiter-Glo, 72 hours). Type of experiment: cell-based. The conditions noted are these: growth inhibition, read-out: BA/F3-KIF5B-RET Cellular activity. The procedure: Compounds disclosed herein were tested for the inhibition of RET by a cancer cell proliferation assay commonly known as CellTiter-Glo assay. In this assay, a complete media was prepared by adding 10% fetal bovine serum to RPMI-1640 medium (Life technology) for BAF3-FIF5B-RET cells. BAF3-KIF5B-RET cells were added to each of 88 wells of a 96 well plate at a seeding density of 2,000 cells/well/95 μL. The cells were allowed to attach to the plate by incubating at 37° C. for 24 hours. The compound was dissolved in DMSO (SIGMA). A solution of test compound was prepared in complete media by serial dilution to obtain the following concentrations: 20 μM, 6.67 μM, 2.22 μM, 0.74 μM, 0.25 μM, 0.082 μM, 0.027 μM, 0.0091 μM and 0.0030 μM. The test compound solution (5 μL) was added to each of 80 cell-containing wells. The final concentrations of the compound were following: 1 μM, 0.33 μM, 0.11 μM, 0.037 μM, 0.012 μM, 0.0041 μM, 0.0014 μM, 0.00046 μM and 0.00015 μM. The final concentration of DMSO is 0.1%. To the 8 remaining cell-containing wells, only complete media (containing 0.1% DMSO) was added to form a control group in order to measure maximal proliferation. To the remaining 8 empty wells, complete media was added to for a vehicle control group in order to measure background. The plates were incubated at 37° C. for 72 hours. 50 μl of CellTiter-Glo® Reagent was added to each well. Mix contents for 2 minutes on an orbital shaker to induce cell lysis. Incubate at room temperature for 10 minutes to stabilize luminescent signal. Record luminescence on Paradigm. Cell viability (CV %) was calculated relative to vehicle (DMSO) treated control wells. The IC50 was calculated using GraphPad Prism.
For orientation: Cellular ATP, detected with luciferase, serves as a proxy for viable cell number.

Experiment [2] concerns the target T2, human RET kinase (Homo sapiens, UniProt P07949).
T2 construct: purchased Carna 08-159
Briefly: RET Kinase Assay (LanthaScreen TR-FRET enzymatic assay). Type of experiment: biochemical. As to conditions: 7 nM RET, 23 μM ATP. A digest of the protocol:
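Human RET (7 nM) preincubated 15 min with compound in 50 mM HEPES pH 7.5, 0.0015% Brij-35, then reacted with 3 μM FAM-P2 peptide and 23 μM ATP for 1 h at 28° C.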

T2 sequence (P07949 29-1114): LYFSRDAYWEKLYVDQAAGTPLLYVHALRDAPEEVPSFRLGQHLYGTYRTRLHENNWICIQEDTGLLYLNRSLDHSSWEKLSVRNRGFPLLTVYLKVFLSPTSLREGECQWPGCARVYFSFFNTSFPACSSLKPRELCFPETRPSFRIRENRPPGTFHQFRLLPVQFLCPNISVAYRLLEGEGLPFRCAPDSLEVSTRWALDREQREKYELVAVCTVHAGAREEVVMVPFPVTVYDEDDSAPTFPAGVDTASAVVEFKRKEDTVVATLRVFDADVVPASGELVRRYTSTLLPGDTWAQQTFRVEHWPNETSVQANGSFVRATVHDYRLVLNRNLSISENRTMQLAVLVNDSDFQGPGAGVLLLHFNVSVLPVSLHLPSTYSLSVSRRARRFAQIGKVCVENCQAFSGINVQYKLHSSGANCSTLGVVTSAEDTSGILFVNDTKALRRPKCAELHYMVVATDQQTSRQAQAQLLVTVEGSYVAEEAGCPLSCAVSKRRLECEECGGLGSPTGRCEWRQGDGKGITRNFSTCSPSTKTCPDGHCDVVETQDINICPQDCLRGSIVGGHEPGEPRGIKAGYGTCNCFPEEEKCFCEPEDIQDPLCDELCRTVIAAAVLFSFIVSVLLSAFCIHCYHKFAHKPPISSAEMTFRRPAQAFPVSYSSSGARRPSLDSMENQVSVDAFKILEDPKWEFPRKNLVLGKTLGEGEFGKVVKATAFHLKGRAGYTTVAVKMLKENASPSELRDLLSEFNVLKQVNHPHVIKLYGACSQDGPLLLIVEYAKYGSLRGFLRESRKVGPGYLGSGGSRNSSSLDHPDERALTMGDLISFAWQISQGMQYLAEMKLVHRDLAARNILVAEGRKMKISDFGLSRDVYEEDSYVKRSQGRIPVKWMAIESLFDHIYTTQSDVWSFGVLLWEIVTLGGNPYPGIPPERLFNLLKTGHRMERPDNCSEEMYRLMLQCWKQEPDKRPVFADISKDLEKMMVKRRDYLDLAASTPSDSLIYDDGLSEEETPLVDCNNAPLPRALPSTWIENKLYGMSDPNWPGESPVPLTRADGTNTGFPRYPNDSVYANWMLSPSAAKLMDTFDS
T1 sequence (P07949 whole entry, change not shown, the tested form may be a part): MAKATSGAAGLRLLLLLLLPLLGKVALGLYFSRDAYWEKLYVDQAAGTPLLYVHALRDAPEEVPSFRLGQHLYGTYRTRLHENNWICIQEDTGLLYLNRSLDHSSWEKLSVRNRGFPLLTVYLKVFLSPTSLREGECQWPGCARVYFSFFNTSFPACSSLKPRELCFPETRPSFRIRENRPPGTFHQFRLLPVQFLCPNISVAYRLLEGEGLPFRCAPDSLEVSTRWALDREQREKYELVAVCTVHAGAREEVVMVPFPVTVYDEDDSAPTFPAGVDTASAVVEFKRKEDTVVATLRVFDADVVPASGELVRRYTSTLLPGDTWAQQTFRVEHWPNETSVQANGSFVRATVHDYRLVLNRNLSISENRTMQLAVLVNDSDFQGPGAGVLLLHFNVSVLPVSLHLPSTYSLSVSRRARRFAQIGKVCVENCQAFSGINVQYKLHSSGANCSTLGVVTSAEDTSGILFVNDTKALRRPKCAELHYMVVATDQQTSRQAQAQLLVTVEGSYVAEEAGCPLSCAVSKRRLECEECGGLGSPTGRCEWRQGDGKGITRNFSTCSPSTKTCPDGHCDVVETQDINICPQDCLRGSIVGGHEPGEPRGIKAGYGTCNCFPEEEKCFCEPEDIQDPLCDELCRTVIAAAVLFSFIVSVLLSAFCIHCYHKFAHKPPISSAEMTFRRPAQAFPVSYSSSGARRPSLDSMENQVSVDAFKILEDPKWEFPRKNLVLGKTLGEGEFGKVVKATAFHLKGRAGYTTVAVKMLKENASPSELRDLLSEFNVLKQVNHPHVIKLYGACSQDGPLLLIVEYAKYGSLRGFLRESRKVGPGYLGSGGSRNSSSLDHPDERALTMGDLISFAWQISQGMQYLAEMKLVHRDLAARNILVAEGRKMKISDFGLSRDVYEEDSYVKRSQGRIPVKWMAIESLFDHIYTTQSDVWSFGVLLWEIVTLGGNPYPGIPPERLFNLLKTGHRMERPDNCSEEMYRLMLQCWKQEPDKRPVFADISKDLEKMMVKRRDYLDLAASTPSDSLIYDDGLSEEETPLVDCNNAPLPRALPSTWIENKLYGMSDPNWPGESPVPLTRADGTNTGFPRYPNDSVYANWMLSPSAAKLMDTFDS

For the compound `COc1ccc(C(=O)N[C@@H]2C[C@@H]3CN(c4cnc(-c5cc(OCC(C)(C)O)cn6ncc(C#N)c56)cn4)C[C@@H]3C2)cn1` [Example 110, N-((3aR,5r,6aS)-2-(5-(3-cyano-6-(2-hydroxy-2-methylpropoxy)pyrazolo[1,5-a]pyridin-4-yl)pyrazin-2-yl)octahydrocyclopenta[c]pyrrol-5-yl)-6-methoxynicotinamide], in experiment [1], the GI50 was > 100 nM. Besides, the IC50 in experiment [2] was 50 to 100 nM.

Take `CC(=O)NC12CC3CC(C1)N(c1cnc(-c4cc(-c5cnn(C)c5)cn5ncc(C#N)c45)cn1)C(C3)C2` [Example 111, N-((1R,3S,5s,7s)-2-(5-(3-cyano-6-(1-methyl-1H-pyrazol-4-yl)pyrazolo[1,5-a]pyridin-4-yl)pyrazin-2-yl)-2-azaadamantan-5-yl)acetamide]: the GI50 in experiment [1] is ≤ 10 nM. Besides, the concentration for half-maximal inhibition (IC50) in experiment [2] is ≤ 10 nM.

For `Cn1cc(-c2cc(-c3cnc(N4C5CC6CC4CC(NC(=O)c4ncccc4Cl)(C6)C5)cn3)c3c(C#N)cnn3c2)cn1` [Example 112, 3-chloro-N-((1R,3S,5s,7s)-2-(5-(3-cyano-6-(1-methyl-1H-pyrazol-4-yl)pyrazolo[1,5-a]pyridin-4-yl)pyrazin-2-yl)-2-azaadamantan-5-yl)picolinamide], the GI50 in experiment [1] is ≤ 10 nM. Moreover, the half-maximal inhibitory concentration (IC50) in experiment [2] is ≤ 10 nM.

As to `COc1ccc(NC(=O)[C@]2(C)C[C@H]3CN(c4ccc(-c5cc(-c6ccn(C)n6)cn6ncc(C#N)c56)cn4)C[C@H]3C2)cn1` [Example 113, (3aR,5s,6aS)-2-(5-(3-cyano-6-(1-methyl-1H-pyrazol-3-yl)pyrazolo[1,5-a]pyridin-4-yl)pyridin-2-yl)-N-(6-methoxypyridin-3-yl)-5-methyloctahydrocyclopenta[c]pyrrole-5-carboxamide], in experiment [1], the GI50 was ≤ 10 nM. In experiment [2], the concentration for half-maximal inhibition (IC50) was ≤ 10 nM.

With `CC(C)(O)COc1cc(-c2ccc(N3C[C@@H]4C[C@](C)(NC(=O)c5ncccc5Cl)C[C@@H]4C3)nc2)c2c(C#N)cnn2c1` [Example 115, 3-chloro-N-((3aR,5r,6aS)-2-(5-(3-cyano-6-(2-hydroxy-2-methylpropoxy)pyrazolo[1,5-a]pyridin-4-yl)pyridin-2-yl)-5-methyloctahydrocyclopenta[c]pyrrol-5-yl)picolinamide], in experiment [1], the GI50 lay within 10 to 50 nM. Also, the half-maximal inhibitory concentration (IC50) in experiment [2] was ≤ 10 nM.

`COc1ccc(NC(=O)[C@@]2(C)C[C@H]3CN(c4ccc(-c5cc(OCC(C)(C)O)cn6ncc(C#N)c56)cn4)C[C@H]3C2)cn1` [Example 116, (3aR,5r,6aS)-2-(5-(3-cyano-6-(2-hydroxy-2-methylpropoxy)pyrazolo[1,5-a]pyridin-4-yl)pyridin-2-yl)-N-(6-methoxypyridin-3-yl)-5-methyloctahydrocyclopenta[c]pyrrole-5-carboxamide]: the GI50 in experiment [1] was > 100 nM. Further, in experiment [2], the IC50 lay within 10 to 50 nM.

Turning to `COc1ccc(CN2[C@@H]3CC[C@H]2[C@H]2CN(c4ccc(-c5cc(OCC(C)(C)O)cn6ncc(C#N)c56)cn4)C[C@H]23)cn1` [Example 117, 6-(2-hydroxy-2-methylpropoxy)-4-(6-((3aR,4S,7R,7aS)-8-((6-methoxypyridin-3-yl)methyl)hexahydro-1H-4,7-epiminoisoindol-2(3H)-yl)pyridin-3-yl)pyrazolo[1,5-a]pyridine-3-carbonitrile], the GI50 in experiment [1] was > 100 nM. Further, in experiment [2], the IC50 was in the range of 10 to 50 nM.

On to `COc1ccc(CN2[C@@H]3CC[C@H]2[C@H]2CN(c4ccc(-c5cc(-c6cnn(C)c6)cn6ncc(C#N)c56)cn4)C[C@H]23)cn1` [Example 118, 4-(6-((3aR,4S,7R,7aS)-8-((6-methoxypyridin-3-yl)methyl)hexahydro-1H-4,7-epiminoisoindol-2(3H)-yl)pyridin-3-yl)-6-(1-methyl-1H-pyrazol-4-yl)pyrazolo[1,5-a]pyridine-3-carbonitrile], for which, in experiment [1], the GI50 was 10 to 50 nM. The IC50 in experiment [2] was ≤ 10 nM.

For `COc1ccc(CNC(=O)[C@H]2[C@@H]3CN(c4ccc(-c5cc(OCC(C)(C)O)cn6ncc(C#N)c56)cn4)C[C@@H]32)cn1` [Example 119, (1R,5S,6r)-3-(5-(3-cyano-6-(2-hydroxy-2-methylpropoxy)pyrazolo[1,5-a]pyridin-4-yl)pyridin-2-yl)-N-((6-methoxypyridin-3-yl)methyl)-3-azabicyclo[3.1.0]hexane-6-carboxamide], the GI50 in experiment [1] is 50 to 100 nM. Besides, the 50% inhibitory concentration (IC50) in experiment [2] is ≤ 10 nM.

For `COc1ccc(CN2C[C@@H]3CN(c4cnc(-c5cc(OCC(C)(C)O)cn6ncc(C#N)c56)cn4)C[C@@H]3C2)cn1` [Example 120, 6-(2-hydroxy-2-methylpropoxy)-4-(5-((3aR,6aS)-5-((6-methoxypyridin-3-yl)methyl)hexahydropyrrolo[3,4-c]pyrrol-2(1H)-yl)pyrazin-2-yl)pyrazolo[1,5-a]pyridine-3-carbonitrile], the GI50 in experiment [1] lay in the range of 10 to 50 nM. Also, in experiment [2], the IC50 is ≤ 10 nM.

With `CC(C)(O)COc1cc(-c2ccc(N3C[C@@H]4[C@@H](CNC(=O)c5c(F)cccc5Cl)[C@@H]4C3)nc2)c2c(C#N)cnn2c1` [Example 125, 2-chloro-N-(((1R,5S,6s)-3-(5-(3-cyano-6-(2-hydroxy-2-methylpropoxy)pyrazolo[1,5-a]pyridin-4-yl)pyridin-2-yl)-3-azabicyclo[3.1.0]hexan-6-yl)methyl)-6-fluorobenzamide], the GI50 in experiment [1] is ≤ 10 nM. Moreover, the 50% inhibitory concentration (IC50) in experiment [2] is ≤ 10 nM.

As for `CC(C)(O)COc1cc(-c2ccc(N3C[C@@H]4[C@H](C3)[C@H]4C(C)(C)NC(=O)c3ncccc3Cl)nc2)c2c(C#N)cnn2c1` [Example 129, 3-chloro-N-(2-((1R,5S,6r)-3-(5-(3-cyano-6-(2-hydroxy-2-methylpropoxy)pyrazolo[1,5-a]pyridin-4-yl)pyridin-2-yl)-3-azabicyclo[3.1.0]hexan-6-yl)propan-2-yl)picolinamide], the GI50 in experiment [1] lay within 50 to 100 nM. Besides, the IC50 in experiment [2] fell in the range of 10 to 50 nM.

In the case of `COc1ccc(NC(=O)C23CC4CC(C2)N(c2ccc(-c5cc(OCC(C)(C)O)cn6ncc(C#N)c56)cn2)C(C4)C3)cn1` [Example 133, (1R,3S,5s,7s)-2-(5-(3-cyano-6-(2-hydroxy-2-methylpropoxy)pyrazolo[1,5-a]pyridin-4-yl)pyridin-2-yl)-N-(6-methoxypyridin-3-yl)-2-azaadamantane-5-carboxamide], the GI50 in experiment [1] lay in the range of 10 to 50 nM. For the same compound, the 50% inhibitory concentration (IC50) in experiment [2] was ≤ 10 nM.

Turning to `CCOc1cc(-c2ccc(N3C4CC5CC3CC(NC(=O)c3ccc(OC)nc3)(C5)C4)nc2)c2c(C#N)cnn2c1` [Example 139, N-((1R,3S,5s,7s)-2-(5-(3-cyano-6-ethoxypyrazolo[1,5-a]pyridin-4-yl)pyridin-2-yl)-2-azaadamantan-5-yl)-6-methoxynicotinamide], the GI50 in experiment [1] lay in the range of 50 to 100 nM. In addition, the IC50 in experiment [2] was ≤ 10 nM.

As to `CC(C)(O)COc1cc(-c2cnc(N3C[C@@H]4C[C@@](C)(NC(=O)c5c(F)cccc5Cl)C[C@@H]4C3)cn2)c2c(C#N)cnn2c1` [Example 144, 2-chloro-N-((3aR,5s,6aS)-2-(5-(3-cyano-6-(2-hydroxy-2-methylpropoxy)pyrazolo[1,5-a]pyridin-4-yl)pyrazin-2-yl)-5-methyloctahydrocyclopenta[c]pyrrol-5-yl)-6-fluorobenzainide], in experiment [1], the GI50 was ≤ 10 nM. The IC50 in experiment [2] was ≤ 10 nM.

The IC50 is the midpoint of a concentration-inhibition curve. High values mean weaker potency, low ones greater potency.
